Laboratory results: article PMC10669046, “Probing the Proton-Gated ASIC Channels Using Tetraalkylammonium Ions” (Biomolecules, 2023)
Values belong to the molecule of their own block, whether it stands above or below them.

How the values were obtained:
ASIC3 = target: T1, ASIC3 (Rattus norvegicus, UniProt O35240); assay: cell-based; details: CHO, read-out: whole-cell patch clamp in transfected CHO cells; potentiation of the sustained c
T1 sequence (O35240 1-533): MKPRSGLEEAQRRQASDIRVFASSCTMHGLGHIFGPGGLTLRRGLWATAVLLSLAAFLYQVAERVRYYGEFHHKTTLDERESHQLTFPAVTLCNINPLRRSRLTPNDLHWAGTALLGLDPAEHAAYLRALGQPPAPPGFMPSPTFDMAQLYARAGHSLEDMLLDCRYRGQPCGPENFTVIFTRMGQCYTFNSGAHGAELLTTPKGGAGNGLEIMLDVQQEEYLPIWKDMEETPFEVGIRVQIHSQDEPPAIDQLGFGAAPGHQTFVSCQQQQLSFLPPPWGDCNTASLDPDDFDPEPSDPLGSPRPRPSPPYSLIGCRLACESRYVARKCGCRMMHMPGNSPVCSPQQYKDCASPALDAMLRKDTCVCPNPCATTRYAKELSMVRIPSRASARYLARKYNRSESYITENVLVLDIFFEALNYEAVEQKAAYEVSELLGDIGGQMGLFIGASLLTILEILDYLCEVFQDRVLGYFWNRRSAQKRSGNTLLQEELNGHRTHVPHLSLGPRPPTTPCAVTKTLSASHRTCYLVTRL

ASIC1a [1] = target: T2, ASIC1a (Rattus norvegicus, UniProt P55926); assay: whole-cell patch clamp in transfected CHO cells; […], pH […], Idrug/Icontrol = […]; assay type: cell-based; details: pH 6.5, read-out: whole-cell patch clamp in transfected CHO cells, 5 mM, pH 6.5, Idrug/Icontrol =
T2 construct: gene Asic1
T2 sequence (P55926 1-526): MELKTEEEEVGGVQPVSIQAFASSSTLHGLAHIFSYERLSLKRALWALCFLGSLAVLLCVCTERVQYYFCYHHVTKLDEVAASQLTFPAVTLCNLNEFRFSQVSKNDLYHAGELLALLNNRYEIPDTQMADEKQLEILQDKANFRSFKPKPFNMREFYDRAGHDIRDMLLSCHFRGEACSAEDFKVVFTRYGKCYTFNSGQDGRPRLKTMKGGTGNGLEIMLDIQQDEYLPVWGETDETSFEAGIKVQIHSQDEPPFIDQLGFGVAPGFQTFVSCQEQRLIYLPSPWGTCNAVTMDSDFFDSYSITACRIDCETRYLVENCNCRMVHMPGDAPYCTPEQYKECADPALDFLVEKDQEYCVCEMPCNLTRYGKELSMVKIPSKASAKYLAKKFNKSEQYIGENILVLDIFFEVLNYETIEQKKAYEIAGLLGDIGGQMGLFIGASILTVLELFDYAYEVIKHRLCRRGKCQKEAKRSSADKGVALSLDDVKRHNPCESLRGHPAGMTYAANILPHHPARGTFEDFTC

ASIC2a = target: T3, ASIC2a (Rattus norvegicus, UniProt Q62962); assay: whole-cell patch clamp in transfected CHO cells; […], pH […], peak Idrug/Icontrol = […]; assay type: cell-based; details: pH 5, read-out: whole-cell patch clamp in transfected CHO cells, 5 mM, pH 5.0, peak Idrug/Icontr
T3 construct: gene Asic2
T3 sequence (Q62962 1-512): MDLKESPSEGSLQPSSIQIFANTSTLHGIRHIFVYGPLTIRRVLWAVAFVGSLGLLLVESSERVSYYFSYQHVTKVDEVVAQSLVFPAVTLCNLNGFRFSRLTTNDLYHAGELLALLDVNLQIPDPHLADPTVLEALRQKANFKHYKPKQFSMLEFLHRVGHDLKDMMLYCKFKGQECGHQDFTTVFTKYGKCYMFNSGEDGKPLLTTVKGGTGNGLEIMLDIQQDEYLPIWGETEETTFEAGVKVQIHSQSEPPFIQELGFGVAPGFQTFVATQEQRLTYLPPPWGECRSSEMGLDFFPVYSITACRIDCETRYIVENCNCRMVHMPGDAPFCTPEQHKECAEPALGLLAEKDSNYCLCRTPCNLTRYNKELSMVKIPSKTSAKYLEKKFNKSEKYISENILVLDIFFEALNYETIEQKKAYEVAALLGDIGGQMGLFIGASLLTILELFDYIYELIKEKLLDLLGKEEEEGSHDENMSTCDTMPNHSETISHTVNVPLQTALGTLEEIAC

ASIC1a [2] = target: T2, ASIC1a; assay: cell-based; details: CHO, read-out: whole-cell patch clamp in transfected CHO cells; 10 mM, voltage-dependent inhibi

- activity at 1000 µM (ASIC3): 112 ± 8%
Compound: CCCC[N+](CCCC)(CCCC)CCCC [TBA, tetrabutylammonium]

Compound: CCCCC[N+](CCCCC)(CCCCC)CCCCC [TPtA, tetrapentylammonium]
- remaining activity at 5000 µM (ASIC1a [1]): 41 ± 6%
- activity at 5000 µM (ASIC2a): 71 ± 18%

Compound: CC[N+](CC)(CC)CC [TEA, tetraethylammonium]
- activity at 10000 µM (ASIC1a [2]): 70 ± 13%
